The values below come from patent publication US10730863B2, “Bridged bicyclic compounds as farnesoid X receptor modulators” (BRISTOL-MYERS SQUIBB COMPANY, priority 2017, dated 2020).

Sequence of FXR (Q96RI1 262-486): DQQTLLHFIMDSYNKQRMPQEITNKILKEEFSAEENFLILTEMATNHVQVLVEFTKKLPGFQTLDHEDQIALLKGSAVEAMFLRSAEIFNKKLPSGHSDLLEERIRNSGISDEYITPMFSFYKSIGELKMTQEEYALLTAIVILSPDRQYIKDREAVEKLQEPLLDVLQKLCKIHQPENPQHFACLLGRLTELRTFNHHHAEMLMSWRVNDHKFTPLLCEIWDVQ

The assay addresses FXR (Homo sapiens (Human), UniProt Q96RI1). Briefly: FXR EC50 (FXR agonist activity reported with each example). The class given is cell-based.
As for `O=C(O)c1ncc(OCC23CCC(OCc4c(-c5c(Cl)cncc5Cl)noc4C4CC4)(CC2)CC3)cc1OCC1CC1` [Example 337], it took 27 nM to reach a half-maximal effect (EC50).
In the case of `O=C(O)c1cc(OCC23CCC(/C=C/c4c(-c5c(Cl)cncc5Cl)noc4C4CC4)(CC2)CO3)cc(OC(F)F)c1` [Example 499, (E)-3-((4-(2-(5-cyclopropyl-3-(3,5-dichloropyridin-4-yl)isoxazol-4-yl)vinyl)-2-oxabicyclo[2.2.2]octan-1-yl)methoxy)-5-(difluoromethoxy)benzoic acid] it was 160 nM; in that of `COC(=O)c1ccc(-c2noc(C34CCC(C=Cc5c(-c6c(Cl)cccc6Cl)noc5C5CC5)(CC3)CC4)n2)cc1` [Example 161], 950 nM; in that of `CCOc1cc(OCC23CCC(OCc4c(-c5c(Cl)cncc5Cl)noc4C4CC4)(CC2)CC3)cnc1C(N)=O` [Example 295], 230 nM.
The result for `Cc1nc(C#CC23CCC(OCc4c(-c5c(Cl)cncc5Cl)noc4C4CC4)(CC2)CC3)ccc1C(=O)O` [Example 417] reads 300 nM; that for `COc1ccc(-c2noc(C34CCC(/C=C/c5c(-c6c(Cl)cncc6Cl)noc5C5CC5)(CC3)CC4)n2)cc1C(=O)NS(C)(=O)=O` [Example 438, (E)-5-(5-(4-(2-(5-cyclopropyl-3-(3,5-dichloropyridin-4-yl)isoxazol-4-yl)vinyl)bicyclo[2.2.2]octan-1-yl)-1,2,4-oxadiazol-3-yl)-2-methoxy-N-(methylsulfonyl)benzamide], 33 nM.
The result for `O=C(O)c1ccc(C#CC23CCC(OCc4c(-c5c(Cl)cncc5Cl)noc4C4CC4)(CC2)CC3)nn1` [Example 419] reads 2000 nM; that for `O=C(O)c1ccc2nc(C34CCC(COCc5c(-c6c(Cl)cccc6Cl)noc5C5CC5)(CC3)CC4)sc2c1` [Example 168, 2-(4-(((5-cyclopropyl-3-(2,6-dichlorophenyl)isoxazol-4-yl)methoxy)methyl)bicyclo[2.2.2]octan-1-yl)benzo[d]thiazole-6-carboxylic acid], 1200 nM; that for `O=C(O)c1ccc(F)c(-c2noc(C34CCC(COCc5c(-c6c(Cl)cncc6Cl)noc5C5CC5)(CC3)CC4)n2)c1` [Example 486, 3-(5-(4-(((5-cyclopropyl-3-(3,5-dichloropyridin-4-yl)isoxazol-4-yl)methoxy)methyl)bicyclo[2.2.2]octan-1-yl)-1,2,4-oxadiazol-3-yl)-4-fluorobenzoic acid], 2700 nM.
On to `OCc1noc(C23CCC(OCc4c(-c5c(Cl)cccc5Cl)noc4C4CC4)(CC2)CC3)n1` [Example 73, (5-(4-((5-cyclopropyl-3-(2,6-dichlorophenyl)isoxazol-4-yl)methoxy)bicyclo[2.2.2]octan-1-yl)-1,2,4-oxadiazol-3-yl)methanol], for which it took 600 nM to reach a half-maximal effect (EC50).
Consider `COC(=O)c1ccc(-c2noc(C34CCC(OCc5c(-c6ccccc6C(F)(F)F)noc5C5CC5)(CC3)CC4)n2)cc1` [Example 34], for which the half-maximal effective concentration (EC50) (usually the concentration at which the effect is half-maximal) came out at 5100 nM.
For the compound `O=C(O)c1cc(F)c2nc(C34CCC(OCc5c(-c6c(Cl)cncc6Cl)noc5C5CC5)(CC3)CC4)sc2c1` [Example 231, 2-(4-((5-cyclopropyl-3-(3,5-dichloropyridin-4-yl)isoxazol-4-yl)methoxy)bicyclo[2.2.2]octan-1-yl)-4-fluorobenzo[d]thiazole-6-carboxylic acid], the EC50 came to 53 nM.
In turn, `COc1cc(C(=O)O)nc2ccc(OCC34CCC(/C=C/c5c(-c6c(Cl)cncc6Cl)noc5C5CC5)(CC3)CC4)cc12` [Example 508, (E)-6-((4-(2-(5-cyclopropyl-3-(3,5-dichloropyridin-4-yl)isoxazol-4-yl)vinyl)bicyclo[2.2.2]octan-1-yl)methoxy)-4-methoxyquinoline-2-carboxylic acid] displayed an EC50 of 100 nM.
For `O=C(O)c1ccc(F)c(-c2noc(C34CCC(OCc5c(-c6c(Cl)cncc6Cl)noc5C5CC5)(CC3)CC4)n2)c1` [Example 461, 3-(5-(4-((5-cyclopropyl-3-(3,5-dichloropyridin-4-yl)isoxazol-4-yl)methoxy)bicyclo[2.2.2]octan-1-yl)-1,2,4-oxadiazol-3-yl)-4-fluorobenzoic acid], the midpoint of the response, the EC50, lay at 190 nM.
`CC(C)(C(=O)O)c1ccc(C23CCC(/C=C/c4c(-c5ccccc5C(F)(F)F)noc4C4CC4)(CC2)CO3)cc1` [Example 477, (E)-2-(4-(4-(2-(5-cyclopropyl-3-(2-(trifluoromethyl)phenyl)isoxazol-4-yl)vinyl)-2-oxabicyclo[2.2.2]octan-1-yl)phenyl)-2-methylpropanoic acid] showed an EC50 of 1500 nM.
Regarding `O=C(O)c1cccc2nc(C34CCC(C=Cc5c(-c6ccccc6OC(F)(F)F)noc5C5CC5)(CC3)CC4)sc12` [Example 183], the concentration giving a half-maximal response (EC50) was 13 nM.
`O=C(O)c1cnc(C#CC23CCC(OCc4c(-c5c(Cl)cncc5Cl)noc4C4CC4)(CC2)CC3)cc1C(F)(F)F` [Example 374] had a 50% effective concentration (EC50) of 130 nM.
`CCCc1cc(C(=O)O)nc2ccc(OCC34CCC(OCc5c(-c6c(Cl)cncc6Cl)noc5C5CC5)(CC3)CC4)cc12` [Example 338, 6-((4-((5-cyclopropyl-3-(3,5-dichloropyridin-4-yl)isoxazol-4-yl)methoxy)bicyclo[2.2.2]octan-1-yl)methoxy)-4-propylquinoline-2-carboxylic acid] returned an EC50 of 17 nM.
`O=C(O)c1cnc(OCC23CCC(OCc4c(-c5c(Cl)cncc5Cl)noc4C4CC4)(CC2)CC3)c(F)c1` [Example 118, 6-((4-((5-cyclopropyl-3-(3,5-dichloropyridin-4-yl)isoxazol-4-yl)methoxy)bicyclo[2.2.2]octan-1-yl)methoxy)-5-fluoronicotinic acid]: a half-maximal effect (EC50) was put at 33 nM.
In turn, `O=C(O)c1cc(-c2nc(C34CCC(OCc5c(-c6ccccc6C(F)(F)F)noc5C5CC5)(CC3)CC4)no2)ccn1` [Example 59] gave an EC50 of 3800 nM.
Turning to `O=C(O)Cc1noc(C23CCC(OCc4c(-c5c(Cl)cccc5Cl)noc4C4CC4)(CC2)CC3)n1` [Example 72, 2-(5-(4-((5-cyclopropyl-3-(2,6-dichlorophenyl)isoxazol-4-yl)methoxy)bicyclo[2.2.2]octan-1-yl)-1,2,4-oxadiazol-3-yl)acetic acid], the EC50 was 3100 nM.
As to `COc1cncc(Cl)c1-c1noc(C2CC2)c1COC12CCC(COc3cc(OC)c4cc(C(=O)O)ccc4n3)(CC1)CC2` [Example 350, 2-((4-((3-(3-chloro-5-methoxypyridin-4-yl)-5-cyclopropylisoxazol-4-yl)methoxy)bicyclo[2.2.2]octan-1-yl)methoxy)-4-methoxyquinoline-6-carboxylic acid], the concentration giving a half-maximal response (EC50) was 890 nM.
The result for `O=C(O)c1csc(OCC23CCC(COCc4c(-c5c(Cl)cccc5Cl)noc4C4CC4)(CC2)CC3)n1` [Example 176, 2-((4-(((5-cyclopropyl-3-(2,6-dichlorophenyl)isoxazol-4-yl)methoxy)methyl)bicyclo[2.2.2]octan-1-yl)methoxy)thiazole-4-carboxylic acid] reads 740 nM; that for `O=C(O)c1ccc2cc(C(O)C34CCC(OCc5c(-c6c(Cl)cccc6Cl)noc5C5CC5)(CC3)CC4)ccc2c1` (stereo not drawn) [Example 126, 6-((4-((5-cyclopropyl-3-(2,6-dichlorophenyl)isoxazol-4-yl)methoxy)bicyclo[2.2.2]octan-1-yl)(hydroxy)methyl)-2-naphthoic acid], 600 nM.
